# Numbered stars: 1 amine (or outer) side, 2 acyl side, 3 side chain; on linkers, the order of the positions; unused ones are H or OH. Bridge positions count the residues as written; N and C are the ends. Square brackets hold non-standard residues; d marks the D form. Ends that are not written are not given here. Peptide text beside a SMILES is read from it. Suc = O=C(CCC(=O)[*:2])[*:1]; Nle = CCCC[C@H](N)C(=O)O; Dab = NCC[C@H](N)C(=O)O
# How the values were obtained:
# [1] = target: T1, hMC1r (Homo sapiens, UniProt Q01726); experiment: Assay for agonist activity: cAMP accumulation in HBL melanoma cells; format: cell-based; design: endogenous in cells; host or cells: HBL human melanoma cells; details: for Emax: HBL, compared to NDP-α-MSH as 100%, read-out: MC-1 Emax (average; cAMP HBL); for EC50: read-out: MC-1 EC50 (average; cAMP HBL)
# Description: 8.2 Assay for Agonist Activity.
# Confluent HBL cells that express hMC1r or HEK-293 cells that express recombinant hMC4r were detached from culture plates by incubation in enzyme-free cell dissociation buffer. Dispersed cells were suspended in Earle's Balanced Salt Solution containing 10 mM HEPES (pH 7.5), 1 mM MgCl2, 1 mM glutamine, 0.5% albumin and 0.3 mM 3-isobutyl-1-methyl-xanthine (IBMX), a phosphodiesterase inhibitor. The cells were plated in 96-well plates at a density of 0.4×10^5 cells per well for HBL cells and 0.5×10^5 cells per well for HEK-293 cells and pre-incubated for 10 minutes. Cells were exposed for 15 minutes at 37° C. to peptides of the present invention dissolved in DMSO (final DMSO concentration of 1%) at a concentration range of 0.05-5000 nM in a total assay volume of 200 μL. […] Data analysis was performed by nonlinear regression analysis with Graph-Pad Prism® software.
# (§1) All results are expressed in nM except for Emax values, which are percentage values. Peptides with the captioned primary sequence were synthesized and purified as described in Section 7 above, with the resulting peptide having the structure depicted.
# [2] = target: T1, hMC1r; experiment: Competitive inhibition binding assay using [I125]-NDP-α-MSH, hMC1r membranes; details: human recombinant MC1r, HEK-293 membranes, read-out: MC-1 Ki (average)
# Description: (§2) A competitive inhibition binding assay was performed using membrane homogenates prepared from HEK-293 cells that express recombinant hMC1r or hMC4r (in each instance where the h prefix refers to human), or alternatively membrane homogenates from B16-F10 mouse melanoma cells containing endogenous murine MC1r. In the examples that follow, all MC1r and MC4r values are for human recombinant receptors, unless otherwise noted. Assays were performed in 96 well polypropylene round-bottom plates (VWR catalog number 12777-030). […] After incubation for 90 minutes at 37° C., the assay mixture was filtered onto GF/B Unifilter plates (Perkin-Elmer catalog number 6005177) and washed with 3 mL of ice-cold buffer per well. Filters were air dried and 35 μL of scintillation cocktail added to each well. Plates were counted in a Microbeta counter for bound radioactivity. […] Each assay was conducted in duplicate and the actual mean values are described, with results less than 0% reported as 0%. Ki values for peptides of the present invention were determined using Graph-Pad Prism® curve-fitting software.
# as §1
# [3] = target: T2, MC4r (Homo sapiens, UniProt P32245); experiment: Competitive inhibition binding assay using [I125]-NDP-α-MSH, hMC4r membranes; design: expressed in transfected cells; host or cells: HEK-293; details: human recombinant MC4r, HEK-293 membranes, read-out: MC-4 Ki (average)
# Description: as §2, §1
# [4] = Human clinical microdose study of C14-labeled oral formulation; format: in vivo; details: single oral microdose of C14-labeled Example 9.3 formulated as for Lot 41
# Source text: A combination of Eudragit® L100-55, Eudragit® S-100 and Eudragit® FS30D polymethacrylates were selected and utilized at a weight ratio of 23.25:23.0:12.5, where the weight of L100-55 and S-100 was dry weight of solid material, and the weight of FS30D was of a commercially prepared aqueous formulation wherein the 12.5 grams of liquid FS30D contained 3.75 grams polymer, for a weight ratio of polymer of 23.25:23:3.75. The combination of polymethacrylates were placed in acetone and stirred for an extended period. […] The dried material was retrieved, diluted with additional dried polymetacrylate mixture not containing peptide to obtain the desired target concentration in a predetermined quantity of material, and milled to the desired diameter and sieved. The sieved material was placed within a gelatin size 2 capsule to provide an oral formulation.
# The oral formulation was administered in a microdose level to 24 subjects, divided into six cohorts of 4 subjects each.
# The only radioactive material identified in urine was the C14 labelled phenylalanine.
# [5] = target: T3, MC2r (Homo sapiens, UniProt Q01718); experiment: Functional selectivity evaluation at Cerep, MC2r; format: cell-based
# T3 construct: Cerep
# Source text: The results were as follows:
# [6] = Dissolution of Eudragit microparticles, USP Apparatus 2; format: physicochemical; details: Lot 40 microparticles (FIG. 8)
# Description: About 1 g of the microparticles was accurately weighed and suspended in the acid at 37° C. for 2 hours. The pH of the medium was then sequentially adjusted to pH 5.5 for 1 hour, pH 6.8 for another hour and finally to pH 7.4 for 7 hours.
# [7] = Plasma assay for systemic peptide in DNBS colitis rats after oral capsules; format: in vivo, rat; details: oral capsules of Lot 41
# [8] = target: T4, MC5r (Homo sapiens, UniProt P33032); experiment: Functional selectivity evaluation at Cerep, MC5r; format: cell-based
# T4 construct: Cerep
# [9] = tested on: TNF-α; experiment: Lipopolysaccharide-induced TNF-α inhibition in vitro; format: cell-based
# [10] = tested on: DNBS-induced bowel inflammation; experiment: Cannulated rat DNBS model of bowel inflammation, intracolonic dosing; format: in vivo; details: 0.5 μg and 5.0 μg intracolonic, Wistar rats
# Description: The rats were implanted with a catheter in the proximal part of the ascending colon, which exited out the nape of the neck for dosing access. […] Non-cannulated control rats were administered sulfasalazine (positive controls) and vehicle (untreated controls).
# [11] = target: T2, MC4r; experiment: cell-based
# [12] = target: T5, MC3r (Homo sapiens, UniProt P41968); experiment: Functional selectivity evaluation at Cerep, MC3r; format: cell-based
# T5 construct: Cerep
# [13] = tested on: MC1r; experiment: Functional selectivity evaluation at Cerep, MC1r; format: cell-based
# [14] = tested on: 72 in vitro assays; experiment: Eurofins lead profile; details: 10 μM
# T2 sequence (P32245 whole entry): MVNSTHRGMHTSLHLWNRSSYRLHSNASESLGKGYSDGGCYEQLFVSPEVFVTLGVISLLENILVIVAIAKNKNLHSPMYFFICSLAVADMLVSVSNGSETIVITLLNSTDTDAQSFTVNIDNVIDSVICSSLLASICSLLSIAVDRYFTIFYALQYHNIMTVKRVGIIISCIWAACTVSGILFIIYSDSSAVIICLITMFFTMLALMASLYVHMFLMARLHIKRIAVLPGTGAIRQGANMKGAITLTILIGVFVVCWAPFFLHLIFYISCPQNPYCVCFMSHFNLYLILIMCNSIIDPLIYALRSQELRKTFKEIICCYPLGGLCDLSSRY
# T1 sequence (Q01726 whole entry): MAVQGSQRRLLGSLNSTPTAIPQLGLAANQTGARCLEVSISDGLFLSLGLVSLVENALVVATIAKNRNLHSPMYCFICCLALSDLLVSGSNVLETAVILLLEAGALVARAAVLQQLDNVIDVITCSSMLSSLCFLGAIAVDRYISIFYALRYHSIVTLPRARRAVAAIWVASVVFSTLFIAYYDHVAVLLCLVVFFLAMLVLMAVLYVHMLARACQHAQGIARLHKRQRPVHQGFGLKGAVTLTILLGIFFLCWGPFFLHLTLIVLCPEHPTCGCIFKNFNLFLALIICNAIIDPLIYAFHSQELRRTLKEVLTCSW
# T3 sequence (Q01718 whole entry, species assumed): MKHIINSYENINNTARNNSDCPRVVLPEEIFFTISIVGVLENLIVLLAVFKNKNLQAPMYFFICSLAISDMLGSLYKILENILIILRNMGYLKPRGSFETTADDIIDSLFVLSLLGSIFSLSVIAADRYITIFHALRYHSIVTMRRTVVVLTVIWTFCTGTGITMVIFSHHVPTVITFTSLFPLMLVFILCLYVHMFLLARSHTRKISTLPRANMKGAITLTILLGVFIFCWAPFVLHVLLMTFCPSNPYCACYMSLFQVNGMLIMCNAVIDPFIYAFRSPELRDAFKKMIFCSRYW
# T3 sequence (Q8TCY5 whole entry partner, species assumed): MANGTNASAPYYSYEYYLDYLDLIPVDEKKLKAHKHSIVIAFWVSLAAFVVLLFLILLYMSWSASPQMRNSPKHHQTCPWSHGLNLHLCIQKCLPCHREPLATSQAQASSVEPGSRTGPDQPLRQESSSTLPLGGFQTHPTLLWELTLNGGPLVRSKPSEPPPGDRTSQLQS
# T5 sequence (P41968 whole entry, species assumed): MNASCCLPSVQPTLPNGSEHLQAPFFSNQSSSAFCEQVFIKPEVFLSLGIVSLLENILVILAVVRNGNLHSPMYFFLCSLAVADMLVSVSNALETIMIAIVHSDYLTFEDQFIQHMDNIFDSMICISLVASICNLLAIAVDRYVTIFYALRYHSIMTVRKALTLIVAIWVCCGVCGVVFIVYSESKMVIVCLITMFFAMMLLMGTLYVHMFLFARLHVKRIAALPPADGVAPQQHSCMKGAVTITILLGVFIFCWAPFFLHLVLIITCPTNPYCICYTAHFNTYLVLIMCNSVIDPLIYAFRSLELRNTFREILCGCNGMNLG
# T4 sequence (P33032 whole entry, species assumed): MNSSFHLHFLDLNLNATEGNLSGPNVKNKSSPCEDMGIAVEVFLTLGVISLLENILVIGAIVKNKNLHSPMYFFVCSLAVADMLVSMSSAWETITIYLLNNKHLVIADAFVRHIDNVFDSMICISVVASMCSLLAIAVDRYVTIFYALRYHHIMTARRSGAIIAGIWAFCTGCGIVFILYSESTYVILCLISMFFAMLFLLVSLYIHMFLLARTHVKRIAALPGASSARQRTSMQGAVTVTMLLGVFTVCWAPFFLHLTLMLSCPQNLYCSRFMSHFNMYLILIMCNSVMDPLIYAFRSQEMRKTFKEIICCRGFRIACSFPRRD
Molecule,Emax [1] [%],EC50 [1] [nM],Ki [2] [nM],Ki [3] [nM],also measured
"CCCC[C@H](NC(C)=O)C(=O)N[C@H]1CNC(=O)CCC(=O)NCC[C@@H](C(=O)N[C@@H](Cc2c[nH]c3ccccc23)C(N)=O)NC(=O)[C@H](CCCNC(=N)N)NC(=O)[C@@H](Cc2ccccc2)NC(=O)[C@H](Cc2c[nH]cn2)NC1=O [Example 9.43, Ac-Nle-cyclo(Dap-His-D-Phe-Arg-Dab)-Trp-NH2]",85,0.016,0.065,860,–
"CCCCC(NC(C)=O)C(=O)N[C@H]1CCC(=O)NCC[C@@H](C(N)=O)NC(=O)[C@H](C)NC(=O)[C@@H](Cc2ccccc2)NC(=O)[C@H](Cc2c[nH]cn2)NC1=O (stereo partly drawn) [Example 9.45, Ac-Nle-cyclo(Glu-His-D-Phe-Ala-Dab)-NH2]",73,44,645,–,–
"CCCCC(NC(C)=O)C(=O)N[C@H]1CCC(=O)NCC[C@@H](C(=O)N[C@@H](CCCCN)C(N)=O)NC(=O)[C@H](CCCNC(=N)N)NC(=O)[C@@H](Cc2ccccc2)NC(=O)[C@H](Cc2c[nH]cn2)NC1=O (stereo partly drawn) [Example 9.52, Ac-Nle-cyclo(Glu-His-D-Phe-Arg-Dab)-Lys-NH2]",91,0.175,2,7370,–
"CCCC[C@H](NC(C)=O)C(=O)N[C@H]1CCC(=O)NC[C@@H](C(=O)N[C@@H](Cc2c[nH]c3ccccc23)C(C)=O)NC(=O)[C@H](CCCNC(=N)N)NC(=O)[C@@H](Cc2ccccc2)NC(=O)[C@H](Cc2c[nH]cn2)NC1=O [Example 9.26, Ac-Nle-cyclo(Glu-His-D-Phe-Arg-Dap)-Trp-OH]",81,0.107,1,4700,intact peptide in plasma or urine [4]: no intact peptide; peptide levels in fecal samples [4]: significant and approximately equal levels
"CCCCC(NC(C)=O)C(=O)N[C@H]1CCC(=O)NCC[C@@H](C(N)=O)NC(=O)[C@H](CCCNC(=N)N)NC(=O)[C@@H](Cc2ccccc2)NC(=O)[C@H](Cc2c[nH]cn2)NC1=O (stereo partly drawn) [Example 9.44, Ac-Nle-cyclo(Glu-His-D-Phe-Arg-Dab)-NH2]",85,0.32,7,–,–
"CCCC[C@H](NC(C)=O)C(=O)N[C@H]1CCC(=O)NC[C@@H](C(=O)N[C@@H](Cc2c[nH]c3ccccc23)C(N)=O)NC(=O)[C@H](CCCNC(=N)N)NC(=O)[C@@H](Cc2ccccc2)NC(=O)[C@H](Cc2c[nH]cn2)NC1=O [Example 9.3, Ac-Nle-cyclo(Glu-His-D-Phe-Arg-Dap)-Trp-NH2]",91,–,–,510,EC50 [5]: > 10000 nM; peptide release from microparticles ([6]; buffer pH 4.5-5.5): no release; peptide release from microparticles ([6]; buffer pH adjusted over time 4.5-7.5): approximately total release; systemic peptide in plasma [7]: did not detect any; intact peptide in plasma or urine [4]: no intact peptide; peptide levels in fecal samples [4]: significant and approximately equal levels; EC50 [8]: > 10000 nM; lipopolysaccharide-induced TNF-α inhibition [9]: comparable to α-MSH and ACTH; inflammation score ([10]; FIG. 1A): as active as sulfasalazine; colon weight ([10]; FIG. 1B): as active as sulfasalazine; EC50 [11]: 510 nM; EC50 [12]: > 10000 nM; EC50 [13]: 0.57 nM; activity in 72 in vitro assays (Eurofins lead profile) [14]: no activity was detected
"CCCC[C@H](NC(C)=O)C(=O)N[C@H]1CCC(=O)NCCC(C(=O)N[C@@H](Cc2c[nH]c3ccccc23)C(N)=O)NC(=O)[C@H](C)NC(=O)[C@@H](Cc2ccccc2)NC(=O)[C@H](Cc2c[nH]cn2)NC1=O (stereo partly drawn) [Example 9.35, Ac-Nle-cyclo(Glu-His-D-Phe-Ala-Dab)-Trp-NH2]",72,0.115,0.8,–,–
"SYSMEHFRWGKPVGKKRRPVKVYPNGAEDESAEAFPLEF [ACTH, reference compound]",–,–,–,–,EC50 [13]: 980 nM
"N=C(N)NCCC[C@@H]1NC(=O)[C@@H](Cc2ccccc2)NC(=O)[C@H](Cc2c[nH]cn2)NC(=O)CCC(=O)NCC[C@@H](C(=O)N[C@@H](Cc2c[nH]c3ccccc23)C(N)=O)NC1=O [Example 9.14, cyclo(Suc-His-Phe-Arg-Dab)-Trp-NH2] (H[dF]R[Dab]W-NH2; linker N-4 via Suc)",80,–,–,–,–
"CCCC[C@H](NC(C)=O)C(=O)N[C@H]1CCC(=O)NCC[C@@H](C(=O)N[C@@H](Cc2c[nH]c3ccccc23)C(N)=O)NC(=O)[C@H](CCCNC(=N)N)NC(=O)[C@H](Cc2ccccc2)NC(=O)[C@H](Cc2c[nH]cn2)NC1=O [Example 9.8, Ac-Nle-cyclo(Glu-His-Phe-Arg-Dab)-Trp-NH2]",88,–,–,–,–
"CCCC[C@H](NC(C)=O)C(=O)N[C@H]1CCC(=O)NCC[C@@H](C(=O)N[C@@H](Cc2c[nH]c3ccccc23)C(N)=O)NC(=O)CNC(=O)[C@@H](Cc2ccccc2)NC(=O)[C@H](Cc2c[nH]cn2)NC1=O [Example 9.34, Ac-Nle-cyclo(Glu-His-D-Phe-Gly-Dab)-Trp-NH2] (Ac-[Nle]EH[dF]G[Dab]W-NH2; lactam 2-6)",59,–,–,–,–
"CCCC[C@H](NC(C)=O)C(=O)N[C@H]1CCC(=O)NCC[C@@H](C(=O)N[C@H](Cc2ccc3ccccc3c2)C(N)=O)NC(=O)[C@H](CCCNC(=N)N)NC(=O)[C@@H](Cc2ccccc2)NC(=O)[C@H](Cc2c[nH]cn2)NC1=O [Example 9.11, Ac-Nle-cyclo(Glu-His-D-Phe-Arg-Dab)-D-Nal 2-NH2]",69,–,–,–,–
"CCCC[C@H](NC(C)=O)C(=O)N[C@H]1CCC(=O)NCCC[C@@H](C(=O)N[C@@H](Cc2c[nH]c3ccccc23)C(N)=O)NC(=O)[C@H](CCCNC(=N)N)NC(=O)[C@@H](Cc2ccccc2)NC(=O)[C@H](Cc2c[nH]cn2)NC1=O [Example 9.6, Ac-Nle-cyclo(Glu-His-D-Phe-Arg-Orn)-Trp-NH2]",91,–,–,–,–

# — patent US20220088146A1, “Melanocortin Receptor-Specific Peptide Formulations and Methods for Gastrointestinal Tract-Specific Delivery” (Palatin Technologies, Inc., priority 2018, published 2022)
